These are literature values, as cited in PMC9186412, “Rational Framework for the Design of Trp- and Arg-Rich Peptide Antibiotics Against Multidrug-Resistant Bacteria” (Frontiers in Microbiology, 2022).

Read-outs that look alike come from different tables or passages of the source.

The test system of data set [1] is CDC AR isolates. Also noted: key: S (green), susceptible; I (blue), intermediate; R (red), resistant. To be noted: data provided by the CDC, ref CDC, cited from earlier work.
The subject of data set [2] is CDC AR isolates. Also noted: key: S (green), susceptible; I (blue), intermediate; R (red), resistant. To be noted: data provided by the CDC, ref CDC, cited from earlier work. The source says:
Supplement Table_3.XLSX, sheet "CDC AR isolates profiles" | column: G(-) strains
This is another data set of the same source.

Setting [3] is: Enterococcus faecium EF673, CDC AR isolate.
Where [4] appears, read: Acinetobacter baumannii AB273, CDC AR isolate.
The mark [5] stands for this setting: Acinetobacter baumannii AB274, CDC AR isolate.
Setting [6] is: Acinetobacter baumannii AB275, CDC AR isolate.
The mark [7] stands for this setting: Acinetobacter baumannii AB276, CDC AR isolate.
[8] abbreviates: Enterobacter cloacae E62, CDC AR isolate.
[9] abbreviates: Enterobacter cloacae E544, CDC AR isolate.
The mark [10] stands for this setting: Enterobacter cloacae E545, CDC AR isolate.
[11] abbreviates: Enterobacter cloacae E546, CDC AR isolate.
[12] abbreviates: Enterococcus faecium EF500, CDC AR isolate.
The mark [13] stands for this setting: Enterococcus faecium EF671, CDC AR isolate.
Where [14] appears, read: Enterococcus faecium EF672, CDC AR isolate.
Where [15] appears, read: Escherichia coli EC541, CDC AR isolate.
[16] abbreviates: Escherichia coli EC543, CDC AR isolate.
Where [17] appears, read: Escherichia coli EC544, CDC AR isolate.
Setting [18] is: Escherichia coli EC549, CDC AR isolate.
Setting [19] is: Klebsiella pneumoniae KP542, CDC AR isolate.
[20] abbreviates: Klebsiella pneumoniae KP548, CDC AR isolate.
[21] abbreviates: Klebsiella pneumoniae KP550, CDC AR isolate.
Where [22] appears, read: Klebsiella pneumoniae KP552, CDC AR isolate.
The mark [23] stands for this setting: Staphylococcus aureus SA461, CDC AR isolate.
Setting [24] is: Staphylococcus aureus SA462, CDC AR isolate.
The mark [25] stands for this setting: Staphylococcus aureus SA463, CDC AR isolate.
Where [26] appears, read: Staphylococcus aureus SA561, CDC AR isolate.

Turning to `CC1(C)S[C@@H]2[C@H](NC(=O)[C@H](N)c3ccccc3)C(=O)N2[C@H]1C(=O)O` [Ampicillin], the Antibiotic susceptibility profile result is on record as “S” in the data set on CDC AR isolates [1] (setting [3]); “R” in the data set on CDC AR isolates [2] (setting [4]); “R” in the data set on CDC AR isolates [2] (setting [5]); “R” with CDC AR isolates [2] (setting [6]); “R” in the data set on CDC AR isolates [2] (setting [7]); “R” in the data set on CDC AR isolates [2] (setting [8]). The Antibiotic susceptibility profile entry in the data set with CDC AR isolates [2] (setting [9]) is listed as “R”; in the data set with CDC AR isolates [2] (setting [10]) it was “R”; with CDC AR isolates [2] (setting [11]) it was “R”; with CDC AR isolates [2] (setting [12]), “R”; in the data set on CDC AR isolates [2] (setting [13]), “S”; in the data set on CDC AR isolates [2] (setting [14]), “S”. Further, the Antibiotic susceptibility profile result in the data set with CDC AR isolates [2] (setting [15]), with CDC AR isolates [2] (setting [16]), with CDC AR isolates [2] (setting [17]), in the data set with CDC AR isolates [2] (setting [18]), with CDC AR isolates [2] (setting [19]) and in the data set with CDC AR isolates [2] (setting [20]) was “R” each time. Moreover, the Antibiotic susceptibility profile entry in the data set on CDC AR isolates [2] (setting [21]) and with CDC AR isolates [2] (setting [22]) was “R” each time.
For `CO[C@@]1(NC(=O)Cc2cccs2)C(=O)N2C(C(=O)O)=C(COC(N)=O)CS[C@@H]21` [Cefoxitin], the Antibiotic susceptibility profile result is “R” in the data set on CDC AR isolates [1] (setting [23]); “R” with CDC AR isolates [2] (setting [8]); “R” with CDC AR isolates [2] (setting [9]); “R” in the data set with CDC AR isolates [2] (setting [10]); “R” in the data set on CDC AR isolates [2] (setting [11]); “S” in the data set with CDC AR isolates [2] (setting [15]). In addition, the Antibiotic susceptibility profile entry in the data set with CDC AR isolates [2] (setting [16]), in the data set with CDC AR isolates [2] (setting [17]), with CDC AR isolates [2] (setting [18]), in the data set on CDC AR isolates [2] (setting [19]), in the data set with CDC AR isolates [2] (setting [20]) and in the data set on CDC AR isolates [2] (setting [21]) was “R” in each case. In addition, the Antibiotic susceptibility profile entry with CDC AR isolates [2] (setting [22]), with CDC AR isolates [2] (setting [24]), with CDC AR isolates [2] (setting [25]) and with CDC AR isolates [2] (setting [26]) was “R” in each case.
For `CCO/N=C(\C(=O)N[C@@H]1C(=O)N2C(C(=O)[O-])=C(Sc3nc(-c4cc[n+](C)cc4)cs3)CS[C@H]12)c1nsc(N)n1` [Ceftaroline], the Antibiotic susceptibility profile entry in the data set on CDC AR isolates [1] (setting [23]) is “S”; in the data set on CDC AR isolates [2] (setting [15]) it was “R”; in the data set with CDC AR isolates [2] (setting [16]) it was “R”; with CDC AR isolates [2] (setting [17]), “R”; with CDC AR isolates [2] (setting [18]), “R”; in the data set on CDC AR isolates [2] (setting [24]) it was “S”. Further, the Antibiotic susceptibility profile entry in the data set on CDC AR isolates [2] (setting [25]) and in the data set on CDC AR isolates [2] (setting [26]) was “S” in each case.
Consider `O=C(N[C@H](CO)[C@H](O)c1ccc([N+](=O)[O-])cc1)C(Cl)Cl` [Chloramphenicol], for which the Antibiotic susceptibility profile entry in the data set on CDC AR isolates [1] (setting [3]) was “S”; in the data set on CDC AR isolates [2] (setting [12]), “I”; in the data set with CDC AR isolates [2] (setting [13]), “R”; in the data set with CDC AR isolates [2] (setting [14]), “I”.
In the case of `CCC[C@@H]1C[C@@H](C(=O)N[C@@H]([C@H]2O[C@H](SC)[C@H](O)[C@@H](O)[C@H]2O)[C@H](C)Cl)N(C)C1` [Clindamycin], the Antibiotic susceptibility profile entry with CDC AR isolates [1] (setting [23]) is listed as “R”; in the data set with CDC AR isolates [2] (setting [24]), “S”; in the data set with CDC AR isolates [2] (setting [25]), “S”; in the data set on CDC AR isolates [2] (setting [26]), “S”.
For `CCCCCCCCCC(=O)N[C@@H](Cc1c[nH]c2ccccc12)C(=O)N[C@H](CC(N)=O)C(=O)N[C@@H](CC(=O)O)C(=O)N[C@@H]1C(=O)NCC(=O)N[C@@H](CCCN)C(=O)N[C@@H](CC(=O)O)C(=O)N[C@H](C)C(=O)N[C@@H](CC(=O)O)C(=O)NCC(=O)N[C@H](CO)C(=O)N[C@@H]([C@H](C)CC(=O)O)C(=O)N[C@@H](CC(=O)c2ccccc2N)C(=O)O[C@@H]1C` [Daptomycin], the Antibiotic susceptibility profile entry with CDC AR isolates [1] (setting [3]), in the data set on CDC AR isolates [1] (setting [23]), in the data set with CDC AR isolates [2] (setting [12]), in the data set on CDC AR isolates [2] (setting [13]), with CDC AR isolates [2] (setting [14]) and with CDC AR isolates [2] (setting [25]) was “S” in each case.
On to `Nc1nc(-n2cc(C(=O)O)c(=O)c3cc(F)c(N4CC(O)C4)c(Cl)c32)c(F)cc1F` [Delafloxacin], for which the Antibiotic susceptibility profile result in the data set on CDC AR isolates [1] (setting [3]), with CDC AR isolates [2] (setting [13]) and in the data set with CDC AR isolates [2] (setting [14]) was “S” in each case.
As to `C[C@H]1c2cccc(O)c2C(=O)C2=C(O)[C@]3(O)C(=O)C(C(N)=O)=C(O)[C@@H](N(C)C)[C@@H]3[C@@H](O)[C@@H]21` [Doxycycline], the Antibiotic susceptibility profile result was “S” with CDC AR isolates [1] (setting [3]); “S” with CDC AR isolates [1] (setting [23]); “I” with CDC AR isolates [2] (setting [12]); “S” with CDC AR isolates [2] (setting [13]); “I” in the data set on CDC AR isolates [2] (setting [14]); “S” in the data set with CDC AR isolates [2] (setting [24]). Moreover, the figures for the Antibiotic susceptibility profile entry with CDC AR isolates [2] (setting [25]) and with CDC AR isolates [2] (setting [26]) were “S” and “I”, respectively.
`CC[C@H]1OC(=O)[C@H](C)[C@@H](O[C@H]2C[C@@](C)(OC)[C@@H](O)[C@H](C)O2)[C@H](C)[C@@H](O[C@@H]2O[C@H](C)C[C@H](N(C)C)[C@H]2O)[C@](C)(O)C[C@@H](C)C(=O)[C@H](C)[C@@H](O)[C@]1(C)O` [Erythromycin]: the Antibiotic susceptibility profile entry is reported as “R” with CDC AR isolates [1] (setting [23]), “S” in the data set on CDC AR isolates [2] (setting [24]), “S” in the data set with CDC AR isolates [2] (setting [25]) and “I” in the data set with CDC AR isolates [2] (setting [26]).
In the case of `CN(C)c1ccc(O)c2c1C[C@H]1C[C@H]3[C@H](N(C)C)C(O)=C(C(N)=O)C(=O)[C@@]3(O)C(O)=C1C2=O` [Minocycline], the Antibiotic susceptibility profile result in the data set on CDC AR isolates [2] (setting [4]) is recorded as “I”; with CDC AR isolates [2] (setting [5]), “I”; in the data set with CDC AR isolates [2] (setting [6]) it was “I”; in the data set on CDC AR isolates [2] (setting [7]) it was “S”.
`C/C(=C\C(=O)OCCCCCCCCC(=O)O)C[C@@H]1OC[C@H](C[C@@H]2O[C@H]2[C@@H](C)[C@H](C)O)[C@@H](O)[C@H]1O` [Mupirocin]: in the data set with CDC AR isolates [2] (setting [26]), the Antibiotic susceptibility profile result is “R”.
As for `CN(C)c1cc(CNCC(C)(C)C)c(O)c2c1C[C@H]1C[C@H]3[C@H](N(C)C)C(O)=C(C(N)=O)C(=O)[C@@]3(O)C(O)=C1C2=O` [Omadacycline], the Antibiotic susceptibility profile result in the data set on CDC AR isolates [2] (setting [19]) is reported as “R”; in the data set on CDC AR isolates [2] (setting [20]) it was “R”; in the data set on CDC AR isolates [2] (setting [21]) it was “R”; in the data set with CDC AR isolates [2] (setting [22]), “S”.
Take `CCN1CCN(C(=O)N[C@@H](C(=O)N[C@@H]2C(=O)N3[C@@H]2SC(C)(C)[C@@H]3C(=O)O)c2ccccc2)C(=O)C1=O` [Piperacillin]: the Antibiotic susceptibility profile result with CDC AR isolates [2] (setting [4]) is reported as “R”; in the data set on CDC AR isolates [2] (setting [5]) it was “R”; in the data set with CDC AR isolates [2] (setting [6]) it was “R”; with CDC AR isolates [2] (setting [7]) it was “R”; in the data set with CDC AR isolates [2] (Pseudomonas aeruginosa PA229, CDC AR isolate), “R”; in the data set on CDC AR isolates [2] (Pseudomonas aeruginosa PA230, CDC AR isolate), “R”. Besides, the Antibiotic susceptibility profile result with CDC AR isolates [2] (Pseudomonas aeruginosa PA231, CDC AR isolate) is listed as “R”; with CDC AR isolates [2] (Pseudomonas aeruginosa PA232, CDC AR isolate), “S”; with CDC AR isolates [2] (Pseudomonas aeruginosa PA239, CDC AR isolate), “R”.
For `CN(C)c1cc(NC(=O)CNC(C)(C)C)c(O)c2c1C[C@H]1C[C@H]3[C@H](N(C)C)C(O)=C(C(N)=O)C(=O)[C@@]3(O)C(O)=C1C2=O` [Tigecycline], the Antibiotic susceptibility profile entry in the data set on CDC AR isolates [2] (setting [8]) is on record as “S”; in the data set with CDC AR isolates [2] (setting [9]), “R”; in the data set with CDC AR isolates [2] (setting [10]), “R”; in the data set on CDC AR isolates [2] (setting [11]), “S”; with CDC AR isolates [2] (setting [15]) it was “S”; with CDC AR isolates [2] (setting [16]), “S”. Also, the Antibiotic susceptibility profile entry in the data set on CDC AR isolates [2] (setting [17]) was “S”; in the data set on CDC AR isolates [2] (setting [18]) it was “S”; with CDC AR isolates [2] (setting [19]), “S”; in the data set with CDC AR isolates [2] (setting [20]) it was “I”; in the data set on CDC AR isolates [2] (setting [21]), “S”; in the data set with CDC AR isolates [2] (setting [22]), “S”.
